Columns and labels:
piglet epidermal cells = experiment: Piglet skin organ culture, 3H-thymidine incorporation into the epidermis; type: cell-based, pig
Excerpt: Pig skin is morphologically and biochemically similar to human skin and is therefore used commonly for testing the effects of materials for, human topical use. Fresh shaved skin from piglets was obtained from the local slaughter house, washed with Dove® Soap and dermatomed at 200μ thickness to obtain the top epidermis and dermal layer. Uniform punch biopsies of the dermatomed pig skin was taken using a 7 mm punch. The biopsies were washed in medium containing high antibiotic/antimycotic mix(Kanamycin and penicillin and streptomycin from Gibco) and incubated for 3 days in high glucose DMEM medium containing hydrocortisone, L-glutamine, antibiotic and antimycotic in the absence of serum in transwell plates, 3 biopsies per well. The medium was fed from the bottom of the transwell so that the epidermal side of the biopsies was in contact with air. On the 3rd day, the medium was changed to fresh medium, and the biopsies were exposed to the various concentrations of various actives in 1 μl of DMSO, as indicated in Table 4. 3 days later, medium was changed, actives readded and the biopsies were labeled with 10 μCi of 3H thymidine per well. After washing the biopsies in PBS, the epidermis was split from the dermis by incubating the biopsies for 24 hrs in 2 M sodium bromide solution with shaking. The epidermis was peeled off from the dermis using a tweezer and dissolved in1 ml of 0.5N NaOH with overnight incubation at 60 ° C. 200 μl of the dissolved epidermis was used for scintillation counting to determine the amount of ^3H thymidine incorporation into the epidermis. The data was calculated as mean cpm for at least 4 replicates, and was also calculated as % of control biopsies which received no actives.

ZR75 cells = experiment: 3H-thymidine incorporation (DNA synthesis / proliferation) in ZR75 cells, test for estrogen-like activity; type: cell-based, human; details: for ZR 75 DNA synthesis (% of Control): Experiment 1; for % of Control / cpm ± SD: 10 nM
Excerpt: The incorporation of ^3H-thymidine by cultured cells was used as an assay of cell proliferation (ZR75 or keratinocyte). Thymidine is one of four deoxynucleosides which are the monomeric units of DNA. Prior to cell division of a somatic cell, the complete genome of the cell undergoing cell division is replicated. This involves large scale DNA synthesis by the cell and enables both daughter cells to receive identical copies of the genetic material. When ^3H-thymidine is included in the culture media of cells which are synthesizing DNA in preparation for cell division then the labeled thymidine is incorporated into the newly synthesized DNA. The extent of incorporation of ^3H-thymidine into a population of cells is proportional to the rate of DNA synthesis. by this population of cells and therefore an indication of their cellular proliferation.
ZR75 cell line is a ductal breast carcinoma cell line, originally isolated from malignant mammary epithelium of a person (Engel et al., Human breast carcinoma cells in continuous culture: A review., Cancer Res., 38: 4327-4339, 1978) This cell line contains receptors for estrogen, progesterone and other steroid hormones, but responds through an increase in proliferation only to estrogen. The cell line contains high affinity estrogen-specific receptors. Therefore, this cell line is used for testing estrogen-like activity (Markiewicz et al., In vitro bioassays of non-steroidal phytoestrogens, J. Steroid Biochem. Molec. Biol., 45: 399-405, 1993).
1. ZR75 cells (from American Type Culture Collection, Rockville, Md.) were grown in RPMT1640 media (from Gibco Life Technologies) with 10% fetal bovine serum (FBS), 100 units penicillin per ml and 100 units of streptomycin per ml. […] The. cells were seeded at a density of one million per 75 cm2 flask. For the experiment, the cells were seeded in 24 well plates at 100,000 cells per ml per well.
2. After growing for 24 hours, the media was removed, the cells were washed with PBS and 1 ml of RPMI 1640 without serum (but with streptomycin and penicillin) was added. Stock solutions of chick pea extract in dimethyl sulfoxide. (DMSO) and estradiol in water were prepared. […] After another 24 hours, […] of [methyl-3H] thymidine was added to each well. The media was removed after 24 hours. The cells were washed once in PBS, the PBS was removed completely and the cells were left on ice to incubate with 1 ml per well of10% TCA (trichlioroacetic acid) for 30 minutes. The plates were washed 3 times with 5% TCA to remove all traces of thymidine which wasn't incorporated into the cells. 500 μl of 0.1M sodium hydroxide was added to each well and the plates were incubated at room temperature for at least 30 minutes. 250 μl of each sample was transferred to scintillation vials and after adding 5 ml of counting fluid, the vials were counted for 5 minutes each on a setting for tritium. […] Values were expressed as mean of triplicate wells ± standard deviation.

## O=c1c(-c2ccc(O)cc2)coc2cc(O)ccc12 [Daidzein, daidzein]
Piglet epidermal cells
  proliferation of piglet epidermal cells, in words: more effective than the natural hormone estradiol
Piglet epidermal cells; Experiment 1, 1 μg/ml
  % of Control: 227 ± 24.4 % of Control
  cpm ± SD: 8599 ± 927 cpm
Piglet epidermal cells; Experiment 1, 10 μg/ml
  % of Control: 292 ± 76.5 % of Control
  cpm ± SD: 11065 ± 2901 cpm

## C[C@]12CC[C@@H]3c4ccc(O)cc4CC[C@H]3[C@@H]1CC[C@@H]2O [Estradiol, estradiol]
ZR75 cells; 0.01 nM
  ZR 75 DNA synthesis (% of Control): 117 ± 19.7 % of Control
ZR75 cells; 0.1 nM
  ZR 75 DNA synthesis (% of Control): 106 ± 16.3 % of Control
ZR75 cells; 1.0 nM
  ZR 75 DNA synthesis (% of Control): 162 ± 3.2 % of Control
ZR75 cells; 10.0 nM
  ZR 75 DNA synthesis (% of Control): 267 ± 15.1 % of Control
ZR75 cells; 100 nM
  ZR 75 DNA synthesis (% of Control): 203 ± 51.2 % of Control
ZR75 cells; 1000 nM
  ZR 75 DNA synthesis (% of Control): 178 ± 20.1 % of Control
ZR75 cells; Experiment 2
  % of Control: 839 ± 27 % of Control
  cpm ± SD: 122254 ± 3940 cpm
ZR75 cells; Experiment 3
  % of Control: 211 ± 7.6 % of Control
  cpm ± SD: 30158 ± 1087 cpm
ZR75 cells; Table 1
  concentration that increased DNA synthesis of ZR75 cells: ≥ 1 nM
Piglet epidermal cells; Experiment 1, 1 nM
  % of Control: 58.9 ± 24.4 % of Control
  cpm ± SD: 2690 ± 1113 cpm
Piglet epidermal cells; Experiment 1, 10 nM
  % of Control: 113 ± 24 % of Control
  cpm ± SD: 5190 ± 1096 cpm
Piglet epidermal cells; Experiment 1, 100 nM
  % of Control: 39.0 ± 32.6 % of Control
  cpm ± SD: 1757 ± 1492 cpm
Piglet epidermal cells; Experiment 2, 1 nM
  % of Control: 196 ± 67.7 % of Control
  cpm ± SD: 2273 ± 783 cpm
Piglet epidermal cells; Experiment 2, 10 nM
  % of Control: 330 ± 101 % of Control
  cpm ± SD: 3817 ± 1175 cpm
Piglet epidermal cells; Experiment 2, 100 nM
  % of Control: 241 ± 65 % of Control
  cpm ± SD: 2785 ± 751 cpm

## COc1ccc(-c2coc3cc(O)ccc3c2=O)cc1 [Formononetin, formononetin]
Piglet epidermal cells; Experiment 1, 1 μg/ml
  % of Control: 126 ± 33.2 % of Control
  cpm ± SD: 4770 ± 1260 cpm
Piglet epidermal cells; Experiment 1, 10 μg/ml
  % of Control: 174 ± 76.1 % of Control
  cpm ± SD: 6608 ± 2886 cpm
